According to ChEMBL document CHEMBL3352642, “6-Acetonyldihydrochelerythrine Is a Potent Inducer of Apoptosis in HCT116 and SW620 Colon Cancer Cells” (J Nat Prod, 2014):
Calls of active or inactive are those of the source. The rule behind the calls is not given here.

Legend:
SW-620 [1] = test: Cytotoxicity against human SW620 cells after 72 hrs by MTS assay; format: functional, cell-based; conditions: SW-620, 72 h
[2] = (§1) Induction of cell death in human HCT116 cells at IC50 after 72 hrs by Guava ViaCount assay relative to control; format: functional, HCT-116
SW-620 [3] = test: Induction of apoptosis in human SW620 cells assessed as reduction in Bcl-XL expression at 1 to 2 times IC50 after 72 hrs by immunoblot analysis relative to control; format: functional, cell-based
SW-620 [4] = test: Induction of apoptosis in human SW620 cells assessed as increase in p53 expression at 1 to 2 times IC50 after 72 hrs by immunoblot analysis relative to control; format: functional, cell-based
SW-620 [5] = test: Induction of apoptosis in human SW620 cells assessed as increase in PARP cleavage at 1 to 2 times IC50 after 72 hrs by immunoblot analysis relative to control; format: functional, cell-based
SW-620 [6] = test: Induction of cell death in human SW620 cells at 2 times IC50 after 72 hrs by Guava ViaCount assay relative to control; format: functional
HCT-116 [7] = test: Induction of apoptosis in human HCT116 cells assessed as reduction in ERK5 expression at 1 to 2 times IC50 after 72 hrs by immunoblot analysis relative to control; format: functional, cell-based
HCT-116 [8] = test: Induction of apoptosis in human HCT116 cells assessed as reduction in Bcl-2 expression at 1 to 2 times IC50 after 72 hrs by immunoblot analysis relative to control; format: functional, cell-based
HCT-116 [9] = test: Induction of apoptosis in human HCT116 cells assessed as reduction in Akt expression at 1 to 2 times IC50 after 72 hrs by immunoblot analysis relative to control; format: functional, cell-based
[10] = Cytotoxicity against human HCT116 cells after 72 hrs by MTS assay; format: functional, cell-based; conditions: HCT-116, 72 h
HCT-116 [11] = test: Induction of apoptosis in human HCT116 cells assessed as reduction in Bcl-XL expression at 1 to 2 times IC50 after 72 hrs by immunoblot analysis relative to control; format: functional, cell-based
SW-620 [12] = test: Induction of apoptosis in human SW620 cells assessed as reduction in ERK5 expression at 1 to 2 times IC50 after 72 hrs by immunoblot analysis relative to control; format: functional, cell-based
SW-620 [13] = test: Induction of apoptosis in human SW620 cells assessed as change in nuclear morphology at IC50 after 24 hrs by fluorescent microscopy relative to control; format: functional
SW-620 [14] = test: Induction of cell death in human SW620 cells at IC50 after 72 hrs by Guava ViaCount assay relative to control; format: functional
HCT-116 [15] = test: Induction of apoptosis in human HCT116 cells assessed as increase in p53 expression at 1 to 2 times IC50 after 72 hrs by immunoblot analysis relative to control; format: functional, cell-based
HCT-116 [16] = test: Induction of apoptosis in human HCT116 cells assessed as change in nuclear morphology at 2 times IC50 after 24 hrs by fluorescent microscopy relative to control; format: functional
[17] = (§2) Cytotoxicity against human HCT116 cells assessed as cell death at IC50 after 72 hrs by LDH release assay relative to control; format: functional, HCT-116
SW-620 [18] = test: Induction of apoptosis in human SW620 cells assessed as change in nuclear morphology at 2 times IC50 after 24 hrs by fluorescent microscopy relative to control; format: functional
HCT-116 [19] = test: Induction of apoptosis in human HCT116 cells assessed as increase in PARP cleavage at 1 to 2 times IC50 after 72 hrs by immunoblot analysis relative to control; format: functional, cell-based
[20] = (§3) Induction of cell death in human HCT116 cells at 2 times IC50 after 72 hrs by Guava ViaCount assay relative to control; format: functional, HCT-116
[21] = (§4) Cytotoxicity against human HCT116 cells assessed as cell death at 2 times IC50 after 72 hrs by LDH release assay relative to control; format: functional, HCT-116
SW-620 [22] = test: Induction of apoptosis in human SW620 cells assessed as reduction in Akt expression at 1 to 2 times IC50 after 72 hrs by immunoblot analysis relative to control; format: functional, cell-based
SW-620 [23] = test: Cytotoxicity against human SW620 cells assessed as cell death at 2 times IC50 after 72 hrs by LDH release assay relative to control; format: functional
SW-620 [24] = test: Induction of apoptosis in human SW620 cells assessed as reduction in Bcl-2 expression at 1 to 2 times IC50 after 72 hrs by immunoblot analysis relative to control; format: functional, cell-based
HCT-116 [25] = test: Induction of apoptosis in human HCT116 cells assessed as reduction in XIAP expression at 1 to 2 times IC50 after 72 hrs by immunoblot analysis relative to control; format: functional, cell-based
SW-620 [26] = test: Induction of apoptosis in human SW620 cells assessed as reduction in XIAP expression at 1 to 2 times IC50 after 72 hrs by immunoblot analysis relative to control; format: functional, cell-based
HCT-116 [27] = test: Induction of apoptosis in human HCT116 cells assessed as change in nuclear morphology at IC50 after 24 hrs by fluorescent microscopy relative to control; format: functional
HCT-116 [28] = test: as §1; format: functional
HCT-116 [29] = test: as §2; format: functional
HCT-116 [30] = test: as §3; format: functional
HCT-116 [31] = test: as §4; format: functional
SW-620 [32] = test: Cytotoxicity against human SW620 cells assessed as cell death at IC50 after 72 hrs by LDH release assay relative to control; format: functional

Structure (SMILES): COc1ccc2c(c1OC)[C@H](CC(C)=O)N(C)c1c-2ccc2cc3c(cc12)OCO3
- IC50 (SW-620 [1]): 3.8 µM
- Activity [2]: 25%
- Activity (SW-620 [3]): Active
- Activity (SW-620 [4]): Active
- Activity (SW-620 [5]): Active
- Activity (SW-620 [6]): 65%
- Activity (HCT-116 [7]): Active
- Activity (HCT-116 [8]): Active
- Activity (HCT-116 [9]): Active
- IC50 [10]: 2400 nM
- Activity (HCT-116 [11]): Active
- Activity (SW-620 [12]): Active
- Activity (SW-620 [13]): 22%
- Activity (SW-620 [14]): 34%
- Activity (HCT-116 [15]): Active
- Activity (HCT-116 [16]): 22%
- fold change (FC) [17]: 1.2
- Activity (SW-620 [18]): 27%
- Activity (HCT-116 [19]): Active
- Activity [20]: 65%
- fold change (FC) [21]: 1.3
- Activity (SW-620 [22]): Active
- fold change (FC) (SW-620 [23]): 1.1
- Activity (SW-620 [24]): Active
- Activity (HCT-116 [25]): Active
- Activity (SW-620 [26]): Active
- Activity (HCT-116 [27]): 19%

Structure (SMILES): O=c1[nH]cc(F)c(=O)[nH]1 [FLUOROURACIL]
- IC50 (SW-620 [1]): 5.3 µM
- Activity (HCT-116 [28]): Active
- Activity (SW-620 [6]): Active
- IC50 [10]: 500 nM
- Activity (SW-620 [14]): Active
- Activity (HCT-116 [16]): <10%
- Activity (HCT-116 [29]): Active
- Activity (SW-620 [18]): 13%
- Activity (HCT-116 [30]): Active
- Activity (HCT-116 [31]): Active
- fold change (FC) (SW-620 [23]): 1.9
- fold change (FC) (SW-620 [32]): 1.1
